Target: human DGAT2 (hDGAT2) (Homo sapiens (Human), UniProt Q96PD7)
Experiment: DGAT2 Enzymatic Activity Assay
Format: biochemical
Conditions: hDGAT2 Sf-9 membrane prep, 13C18-triolein product by LC/MS/MS
Experimental: Sf-9 insect cells were maintained in Grace's insect cell culture medium with 10% heated-inactivated fetal bovine serum, 1% Pluronic F-68 and 0.14 μg/ml Kanamycine sulfate at 27° C. in a shaker incubator. After infection with untagged baculovirus expressing human DGAT2 (hDGAT2) at multiplicity of infection (MOI) 3 for 48 hours, cells were harvested. Cell pellets were suspended in buffer containing 10 mM Tris-HCl pH 7.5, 1 mM EDTA, 250 mM sucrose and Complete Protease Inhibitor Cocktail (Sigma Aldrich), and sonicated on ice. Cell debris were removed by centrifugation at 2000×g for 15 minutes. Membrane fractions were isolated by ultracentrifugation (100,000×g), resuspended in the same buffer, and frozen (−80° C.) for later use. The protein concentration was determined with the Pierce™ BCA Protein Assay Kit (Thermo Fisher Scientific).
LC/MS/MS analyses were performed using Thermal Fisher's LX4-TSQ Vantage system. This system consists of an Agilent binary high-performance liquid chromatography (HPLC) pump and a TSQ Vantage triple quadrupole MS/MS instrument. For each sample, 2 μL samples from the top organic layer of in-plate liquid-liquid extraction were injected onto a Thermo Betabasic C4 column (2.1 mm×20 mm, 5 μm particle size). The samples were then eluted using the following conditions; mobile phase: Isopropanol: acetonitrile/10 mM ammonium formate=50/35/15 (v/v/v), flow rate: 0.8 mL/min, temperature: 25° C. Data was acquired in positive mode using a heated electrospray ionization (HESI) interface. […] The peak area was integrated by Xcalibur Quan software. The ratio between the ^13C18triolein generated in the reaction and spiked in internal standard ^13C21-triolein was used to generate percentage inhibition and IC50 values. Compound percentage inhibition was calculated by the following formula: Inhibition %=1−[(compound response−low control)/(high control−low control)]×100%.
DGAT2 activity was determined by measuring the amount of enzymatic product ^13C18-triolein (^13C-1,2,3-Tri(cis-9-octadecenoyl)glycerol) using the membrane prep mentioned above. The assay was carried out in ABgene 384-well assay plates in a final volume of 25 μL at rt.

[1] = 25 μM diolein, 5 μM 13C oleoyl-CoA

Sequence of human DGAT2 (hDGAT2) (Q96PD7 whole entry): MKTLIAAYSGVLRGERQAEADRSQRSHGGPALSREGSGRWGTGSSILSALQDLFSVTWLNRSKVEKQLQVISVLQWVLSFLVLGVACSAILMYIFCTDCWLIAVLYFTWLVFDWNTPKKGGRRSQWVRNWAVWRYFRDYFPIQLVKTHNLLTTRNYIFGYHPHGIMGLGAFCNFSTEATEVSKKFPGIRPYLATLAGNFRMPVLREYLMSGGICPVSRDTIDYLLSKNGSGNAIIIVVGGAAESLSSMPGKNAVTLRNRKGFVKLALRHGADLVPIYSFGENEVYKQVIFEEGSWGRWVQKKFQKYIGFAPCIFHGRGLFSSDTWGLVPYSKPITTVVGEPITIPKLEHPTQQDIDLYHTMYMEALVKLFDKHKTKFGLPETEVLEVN

Row | Compound | IC50 (unit given as nm) | IC50 [1]
1 | CC1(NC(=O)C2CCc3c(-c4ccccc4Cl)nn(-c4ccc(F)cc4)c3C2)CCS(=O)(=O)C1 (centres unmarked) [Example 1, 3-(2-chlorophenyl)-1-(4-fluorophenyl)-N-(3-methyl-1,1-dioxidotetrahydrothiophen-3-yl)-4,5,6,7-tetrahydro-1H-indazole-6-carboxamide] | 0.0379 µM | 
2 | C[C@]1(NC(=O)[C@H]2CCc3c(-c4ccccc4Cl)nn(-c4ccc(F)cc4)c3C2)CCS(=O)(=O)C1 (single isomer, unassigned) [Example 1a] |  | 3.9 µM
3 | COCC(C)(C)NC(=O)[C@@H]1CCc2c(-c3cccc(OC(F)F)c3)nn(C(C)C)c2C1 [Example 66, (R)-3-(3-(difluoromethoxy)phenyl)-1-isopropyl-N-(1-methoxy-2-methylpropan-2-yl)-4,5,6,7-tetrahydro-1H-indazole-6-carboxamide] |  | 1.33 µM
4 | CC(C)n1nc(-c2cccc(OC(F)F)c2)c2c1C[C@H](C(=O)NCc1cnoc1)CC2 [Example 63, (R)-3-(3-(difluoromethoxy)phenyl)-1-isopropyl-N-(isoxazol-4-ylmethyl)-4,5,6,7-tetrahydro-1H-indazole-6-carboxamide] |  | 4.56 µM
5 | CC(c1nccs1)n1nc(-c2cc(OC(F)F)ccc2F)c2c1C[C@H](C(=O)NC1(C)CS(=O)(=O)C1)CC2 (stereo partly drawn) [Example 80, (6R)-3-(5-(difluoromethoxy)-2-fluorophenyl)-N-(3-methyl-1,1-dioxidothietan-3-yl)-1-(1-(thiazol-2-yl)ethyl)-4,5,6,7-tetrahydro-1H-indazole-6-carboxamide] |  | 0.174 µM
6 | CC1(NC(=O)[C@@H]2CCc3c(-c4cncc(OC(F)F)c4)nn(-c4ccc(F)cn4)c3C2)CS(=O)(=O)C1 [Example 12, (R)-3-(5-(difluoromethoxy)pyridin-3-yl)-1-(5-fluoropyridin-2-yl)-N-(3-methyl-1,1-dioxidothietan-3-yl)-4,5,6,7-tetrahydro-1H-indazole-6-carboxamide] |  | 0.0658 µM
7 | CC(C)n1nc(-c2cc(OCC(F)(F)F)ncc2F)c2c1C[C@H](C(=O)NC1(C)CS(=O)(=O)C1)CC2 [Example 43, (R)-3-(5-fluoro-2-(2,2,2-trifluoroethoxy)pyridin-4-yl)-1-isopropyl-N-(3-methyl-1,1-dioxidothietan-3-yl)-4,5,6,7-tetrahydro-1H-indazole-6-carboxamide] |  | 0.0141 µM
8 | CCC1(NC(=O)[C@@H]2CCc3c(-c4cccc(OC(F)F)c4)nn(C(C)C)c3C2)CS(=O)(=O)C1 [Example 69, (R)-3-(3-(difluoromethoxy)phenyl)-N-(3-ethyl-1,1-dioxidothietan-3-yl)-1-isopropyl-4,5,6,7-tetrahydro-1H-indazole-6-carboxamide] |  | 0.09 µM
9 | N#CC1(NC(=O)[C@@H]2CCc3c(-c4cncc(OC(F)F)c4)nn(-c4ccc(F)cn4)c3C2)CCOC1 (single isomer, unassigned) [Example 15b] |  | 0.236 µM
10 | CC(C)n1nc(-c2cc(OCC(F)(F)F)ncc2F)c2c1C[C@H](C(=O)N[C@@]1(C)CCS(=O)(=O)C1)CC2 [Example 44, (R)-3-(5-fluoro-2-(2,2,2-trifluoroethoxy)pyridin-4-yl)-1-isopropyl-N-((S)-3-methyl-1,1-dioxidotetrahydrothiophen-3-yl)-4,5,6,7-tetrahydro-1H-indazole-6-carboxamide] |  | 0.0053 µM
11 | CC(C)n1nc(-c2cc(OC(F)F)ncc2F)c2c1C[C@H](C(=O)N[C@@]1(C)CCS(=O)(=O)C1)CC2 [Example 41, (R)-3-(2-(difluoromethoxy)-5-fluoropyridin-4-yl)-1-isopropyl-N-((S)-3-methyl-1,1-dioxidotetrahydrothiophen-3-yl)-4,5,6,7-tetrahydro-1H-indazole-6-carboxamide] |  | 0.139 µM
12 | CC(C)n1nc(-c2cncc(C(=O)NC(C)(C)C)c2)c2c1C[C@H](C(=O)NC1(C)CS(=O)(=O)C1)CC2 [Example 95, (R)-3-(5-(tert-butylcarbamoyl)pyridin-3-yl)-1-isopropyl-N-(3-methyl-1,1-dioxidothietan-3-yl)-4,5,6,7-tetrahydro-1H-indazole-6-carboxamide] |  | > 10 µM
13 | C[C@]1(NC(=O)[C@@H]2CCc3c(-c4cccc(C5CC(F)(F)C5)c4)nn(-c4ccc(F)cc4)c3C2)CCS(=O)(=O)C1 [Example 13, (R)-3-(3-(3,3-difluorocyclobutyl)phenyl)-1-(4-fluorophenyl)-N-((S)-3-methyl-1,1-dioxidotetrahydrothiophen-3-yl)-4,5,6,7-tetrahydro-1H-indazole-6-carboxamide] |  | 0.02 µM
14 | CC1(NC(=O)[C@@H]2CCc3c(-c4cccc(OC(F)F)c4)nn(-c4ccc(F)cn4)c3C2)CC(F)(F)C1 [Example 7, (R)-N-(3,3-difluoro-1-methylcyclobutyl)-3-(3-(difluoromethoxy)phenyl)-1-(5-fluoropyridin-2-yl)-4,5,6,7-tetrahydro-1H-indazole-6-carboxamide] |  | 0.012 µM
15 | CC(C#N)n1nc(-c2cc(OC(F)F)ccc2F)c2c1C[C@H](C(=O)NC1(C)CS(=O)(=O)C1)CC2 (stereo partly drawn) [Example 79, (6R)-1-(1-cyanoethyl)-3-(5-(difluoromethoxy)-2-fluorophenyl)-N-(3-methyl-1,1-dioxidothietan-3-yl)-4,5,6,7-tetrahydro-1H-indazole-6-carboxamide] |  | 0.0591 µM
16 | O=C(NC1(CO)CCC(F)(F)C1)[C@@H]1CCc2c(-c3cccc(OC(F)F)c3)nn(-c3ccc(F)cn3)c2C1 (single isomer, unassigned) [Example 8a] |  | 0.005 µM
17 | CC(C(F)F)n1nc(-c2cc(OC(F)F)ccc2F)c2c1C[C@H](C(=O)NC1(C)CS(=O)(=O)C1)CC2 (single isomer, unassigned) [Example 48b] |  | 0.0198 µM
18 | [2H]C([2H])([2H])C([2H])(n1nc(-c2cc(OC(F)F)ccc2F)c2c1C[C@H](C(=O)NC1(C#N)CCS(=O)(=O)CC1)CC2)C([2H])([2H])[2H] [Example 51, (R)-N-(4-cyano-1,1-dioxidotetrahydro-2H-thiopyran-4-yl)-3-(5-(difluoromethoxy)-2-fluorophenyl)-1-(propan-2-yl-d7)-4,5,6,7-tetrahydro-1H-indazole-6-carboxamide] |  | 0.0043 µM
19 | O=C(NC1(CO)CCC(F)(F)C1)[C@@H]1CCc2c(-c3cccc(OC(F)F)c3)nn(-c3ccc(F)cn3)c2C1 (single isomer, unassigned) [Example 8b] |  | 0.035 µM
20 | CC1(NC(=O)[C@@H]2CCc3c(-c4cc(OC(F)F)ccc4F)nn(S(C)(=O)=O)c3C2)CS(=O)(=O)C1 [Example 115, (R)-3-(5-(difluoromethoxy)-2-fluorophenyl)-N-(3-methyl-1,1-dioxidothietan-3-yl)-1-(methylsulfonyl)-4,5,6,7-tetrahydro-1H-indazole-6-carboxamide] | 0.107 µM | 

Next, values leading:

Row | IC50 (unit given as nm) | IC50 [1] | Compound
21 |  | 0.0307 µM | CCOc1cc(-c2nn(C(C)C(C)(C)O)c3c2CC[C@@H](C(=O)NC2(C)CCS(=O)(=O)CC2)C3)c(F)cn1 (single isomer, unassigned) [Example 109b]
22 |  | 0.0113 µM | CC(n1nc(-c2cc(OCC(F)(F)F)ncc2F)c2c1C[C@H](C(=O)N[C@@]1(C)CCS(=O)(=O)C1)CC2)C(C)(C)O (single isomer, unassigned) [Example 112a]
23 |  | 0.0316 µM | CC(n1nc(-c2cc(OCC(F)(F)F)ncc2F)c2c1C[C@H](C(=O)N[C@@]1(C)CCS(=O)(=O)C1)CC2)C(C)(C)O (single isomer, unassigned) [Example 112b]
24 |  | 0.0234 µM | CC(C1CC1)n1nc(-c2cc(OC(F)F)ccc2F)c2c1C[C@H](C(=O)NC1(C)CS(=O)(=O)C1)CC2 (single isomer, unassigned) [Example 58a]
25 |  | 0.0054 µM | CC(n1nc(-c2cc(OCC(F)(F)F)ncc2F)c2c1C[C@H](C(=O)NC1(C)CCS(=O)(=O)CC1)CC2)C(C)(C)O (single isomer, unassigned) [Example 107b]
26 |  | 0.0321 µM | CC(C(F)F)n1nc(-c2cc(OC(F)F)ccc2F)c2c1C[C@H](C(=O)NC1(C)CCS(=O)(=O)CC1)CC2 (single isomer, unassigned) [Example 49a]
27 |  | 0.0495 µM | CCOc1cc(-c2nn(C(C)C(C)(C)O)c3c2CC[C@@H](C(=O)NC2(C)CCS(=O)(=O)CC2)C3)c(F)cn1 (single isomer, unassigned) [Example 109a]
28 |  | 0.162 µM | CCOc1cc(-c2nn(C(C)C(F)(F)F)c3c2CC[C@@H](C(=O)NC2(C)CCS(=O)(=O)CC2)C3)c(F)cn1 (single isomer, unassigned) [Example 53a]
29 |  | 0.178 µM | C[C@]1(NC(=O)[C@H]2Cc3c(c(-c4cccc(OC(F)F)c4)nn3C3CCOCC3)C(F)(F)C2)CCS(=O)(=O)C1 (single isomer, unassigned) [Example 117b]
